The values that follow come from WO2009115235A1, “Pde inhibitors for the treatment of pulmonary hypertension” (Bayer Schering Pharma AG, priority 2008, dated 2009).

Each structure is given as a SMILES string.

The subject of one experiment is conscious Beagle dogs. Briefly: Measurement of Pulmonary Artery Pressure in conscious telemetric Beagle dogs. It is filed as in vivo, dog (male Beagle). The following applies: for lowering of pulmonary artery pressure (in words): conscious dogs; for reduction of U44096-induced PH (pulmonary artery pressure): conscious Beagle dogs, significant.
Experiment [1] deals with isolated rat pulmonary vessels. Description: Relaxation of isolated small pulmonary arteries precontracted with norepinephrine (organ bath / vessel myograph). Also noted: species or system rat (male Wistar). The following applies: comparison of vardenafil, sildenafil and tadalafil.

With `CCCc1nc(C)c2c(=O)[nH]c(-c3cc(S(=O)(=O)N4CCN(CC)CC4)ccc3OCC)nn12` [Vardenafil, vardenafil], the “decrease of pulmonary artery pressure, inhaled vs oral (in words)” value in the experiment with conscious Beagle dogs (inhalation compared with oral application, conscious dogs with telemetric implant) is listed as “more potently decreased pulmonary artery pressure then Vardenafil applied orally”. For the same molecule, the “lowering of pulmonary artery pressure (in words)” value in the experiment with conscious Beagle dogs (inhalation, 30μg/kg, compared with 10-fold higher oral dose) is on record as “could lower pulmonary artery pressure as significantly as with the 10-fold higher oral dose”; in the experiment with conscious Beagle dogs (oral, 300μg/kg), “significantly lowered pulmonary artery pressure”. The “reduction of U44096-induced PH (pulmonary artery pressure)” value is reported as 30% in the experiment on conscious Beagle dogs (inhaled, 30μg/kg nebulized within 10 minutes) and 30% in the experiment with conscious Beagle dogs (oral, 300μg/kg). In addition, in the experiment with conscious Beagle dogs (inhaled, 30μg/kg/10 min, whole observation period 3 hours), the “duration of the decrease of the pulmonary artery pressure” value was not below 3 h. Also, the “relaxation of rat pulmonary vessels (ranking of PDE5 inhibitors)” value is “most prominent” in experiment [1]; “relaxed pulmonary vessels of rat more potently then the PDE5 inhibitors sildenafil and tadalafil” in experiment [1] (listed as vardenafil).
